A short description of this data set: physchem.

The record followed here is US20240367095A1, “TERTIARY ALKANOLAMINE FOR GAS TREATING” (Dow Global Technologies LLC, priority 2021, published 2024).

Take `CCCN(CCO)CC(O)CO` (stereo not shown) [HEPAPD]: the pKa (usually the negative logarithm of the acid dissociation constant) is 8.54.
Molecule `CC(CO)N(C)CC(O)CO` (stereo not shown) [HMEMAPD, 3-[(2-hydroxy-1-methylethyl)methylamino]-1,2-propanediol] showed a pKa of 8.53.
Next, `CCC(CO)N(C)CC(O)CO` (stereo not shown) [HMPMAPD, 3-[[1-(hydroxymethyl)propyl]methylamino]-1,2-propanediol]: 8.53.
On to `CCN(CC(O)CO)C(C)CO` (stereo not shown) [EHMEAPD, 3-[ethyl(2-hydroxy-1-methylethyl)amino]-1,2-propanediol], for which the pKa amounted to 8.62. The pKa values of the last two molecules are within 0.2 log units of each other.
`CN(CCO)CC(O)CO` (stereo not shown) [HEMAPD] showed a pKa of 8.45.
For the molecule `CCN(CCO)CC(O)CO` (stereo not shown) [HEEAPD], the pKa was 8.54.
The molecule `CCCCN(CCO)CC(O)CO` (stereo not shown) [HEBAPD] returned a pKa of 8.54.
